From patent publication US7300947B2, “N-dihydroxyalkyl-substituted 2-oxo-imidazole derivatives” (Banyu Pharmaceutical Co., Ltd., priority 2005, dated 2007)
Counter-ions that a name gives are not always drawn.

Test: Metabolic stability test using human liver microsome
Assay type: in vitro ADME
Details: human liver microsome 0.25 mg protein/mL, 1 μM test compound, 37° C., after 30 minutes' reaction
Description: Pharmacological Test Example 3 (Metabolic Stability Test) Metabolic stability of test compounds was examined using human liver microsome. A 100 mM potassium phosphate buffer (pH 7.4) comprising 10 mM [MUT], 1.0 mM NADP^+, 10 units/mL [MUT] DH, 3.0 mM MgCl2 and 0.25 mg protein/mL of human liver microsome was prepared, each 392 μL of which was poured into plural vessels and preincubated at 37° C. for 5 minutes. […] At the initiation time and 30 minutes thereafter of the reaction, 150 μL of each reaction solution was added to 450 μL of ethanol to suspend the reaction, followed by centrifugal separation (12,000 g, 12 minutes, 4° C.). Resulting supernatant was analyzed with LC/MS/MS. Based on the peak area of the test compound in each sample at the initiating time of the reaction as 100%, the test compound's residual ratio in the sample after 30 minutes' reaction was calculated. Residual ratio(%)= [peak area(after 30 minutes' reaction)/ peak area(0 minute's reaction)]×100.

## CC(O)(CO)Cn1c(=O)n(C2CCN(CC3CCCCC34CC4)CC2)c2ccccc21 (single isomer, unassigned) [Example 4, 1-[(2S or 2R)-2,3-dihydroxy-2-methylpropyl]-3-{1-[(4S)-spiro[2.5]oct-4-ylmethyl]piperidin-4-yl}-1,3-dihydro-2H-benzimidazol-2-one(2R,3R)-3-carboxy-2,3-dihydroxypropionic acid salt]
  Residual Ratio: 72%
